According to patent publication US20240150377A1, “MODULATORS OF CYSTIC FIBROSIS TRANSMEMBRANE CONDUCTANCE REGULATOR” (VERTEX PHARMACEUTICALS INCORPORATED, priority 2020, published 2024):
Read-outs that look alike come from different tables or passages of the source. Values belong to the compound of their own block, whether it stands above or below them.

Molecular target: T1, CFTR (Homo sapiens, UniProt P13569, DEL508-508)
T1 construct: endogenous in cells; host or cells: primary human bronchial epithelial cells from CF subjects (F508del/MF-HBE), differentiated at air-liquid interface
T1 sequence (P13569 with tags, fused parts or gaps DEL508-508): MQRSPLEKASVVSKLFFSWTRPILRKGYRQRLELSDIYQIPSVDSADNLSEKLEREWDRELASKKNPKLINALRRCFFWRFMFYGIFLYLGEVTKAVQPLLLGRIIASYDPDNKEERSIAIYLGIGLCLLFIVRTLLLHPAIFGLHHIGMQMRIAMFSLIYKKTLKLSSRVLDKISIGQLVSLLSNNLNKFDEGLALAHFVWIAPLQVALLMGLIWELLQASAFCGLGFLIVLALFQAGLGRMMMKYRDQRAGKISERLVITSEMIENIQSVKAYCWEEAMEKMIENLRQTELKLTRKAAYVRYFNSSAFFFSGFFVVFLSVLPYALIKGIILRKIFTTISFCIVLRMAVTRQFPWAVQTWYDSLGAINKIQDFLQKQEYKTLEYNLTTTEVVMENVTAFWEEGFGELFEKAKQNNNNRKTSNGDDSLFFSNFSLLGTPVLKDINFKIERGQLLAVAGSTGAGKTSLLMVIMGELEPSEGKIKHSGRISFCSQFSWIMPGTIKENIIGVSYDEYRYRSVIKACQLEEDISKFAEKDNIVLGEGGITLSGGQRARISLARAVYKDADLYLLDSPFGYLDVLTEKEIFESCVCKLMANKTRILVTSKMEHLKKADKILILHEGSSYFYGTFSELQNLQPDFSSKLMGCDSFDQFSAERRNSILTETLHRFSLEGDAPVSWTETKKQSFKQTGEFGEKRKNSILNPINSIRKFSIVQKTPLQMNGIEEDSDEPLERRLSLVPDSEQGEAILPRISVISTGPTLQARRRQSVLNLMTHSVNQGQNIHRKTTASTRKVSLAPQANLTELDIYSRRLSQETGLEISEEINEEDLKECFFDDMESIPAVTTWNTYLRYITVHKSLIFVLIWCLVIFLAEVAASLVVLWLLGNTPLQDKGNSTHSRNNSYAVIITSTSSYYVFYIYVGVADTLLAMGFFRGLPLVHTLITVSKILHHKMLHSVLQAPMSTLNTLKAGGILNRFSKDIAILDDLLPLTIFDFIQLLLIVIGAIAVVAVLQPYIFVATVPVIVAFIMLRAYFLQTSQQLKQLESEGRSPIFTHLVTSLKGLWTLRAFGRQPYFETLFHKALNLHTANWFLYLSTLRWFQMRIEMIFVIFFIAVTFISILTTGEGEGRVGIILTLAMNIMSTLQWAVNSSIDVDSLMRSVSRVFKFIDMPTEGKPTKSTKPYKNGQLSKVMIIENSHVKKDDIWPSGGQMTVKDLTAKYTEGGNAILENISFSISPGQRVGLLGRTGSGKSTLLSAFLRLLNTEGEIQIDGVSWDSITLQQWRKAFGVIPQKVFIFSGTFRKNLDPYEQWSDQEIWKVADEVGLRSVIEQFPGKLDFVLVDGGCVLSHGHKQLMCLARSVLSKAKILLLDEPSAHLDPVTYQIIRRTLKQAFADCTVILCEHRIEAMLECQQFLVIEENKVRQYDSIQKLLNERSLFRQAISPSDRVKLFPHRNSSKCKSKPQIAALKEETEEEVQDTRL
Test: HBE assay: Ussing chamber assay of CFTR-mediated short-circuit currents
Assay type: cell-based
Details: for EC50: read-out: HBE EC50
Procedure: 1. Ussing Chamber Assay of CFTR-Mediated Short-Circuit Currents
(§1) Ussing chamber experiments were performed using human bronchial epithelial (HBE) cells derived from CF subjects heterozygous for F508del and a minimal function CFTR mutation (F508del/MF-HBE) and cultured as previously described (Neuberger T, Burton B, Clark H, Van Goor F Methods Mol Biol 2011:741:39-54). After four days the apical media was removed, and the cells were grown at an air liquid interface for >14 days prior to use.
(§2) To isolate the CFTR-mediated short-circuit (ISC) current, F508del/MF-HBE grown on Costar® Snapwell™ cell culture inserts were mounted in an Ussing chamber and the transepithelial ISC was measured under voltage-clamp recording conditions (Vhold=0 mV) at 37° C. The basolateral solution contained (in mM) 145 NaCl, 0.83 K2HPO4, 3.3 KH2PO4, 1.2 MgCl2, 1.2 CaCl2), 10 Glucose, 10 HEPES (pH adjusted to 7.4 with NaOH) and the apical solution contained (in mM) 145 NaGluconate, 1.2 MgCl2, 1.2 CaCl2), 10 glucose, 10 HEPES (pH adjusted to 7.4 with NaOH) and 30 μM amiloride to block the epithelial sodium channel. Forskolin (20 μM) was added to the apical surface to activate CFTR, followed by apical addition of a CFTR inhibitor cocktail consisting of BPO, GlyH-101, and CFTR inhibitor 172 (each at 20 μM final assay concentration) to specifically isolate CFTR currents. The CFTR-mediated ISC (μA/cm^2) for each condition was determined from the peak forskolin response to the steady-state current following inhibition.
2. Identification of Corrector Compounds
The activity of the CFTR corrector compounds on the CFTR-mediated ISC was determined in Ussing chamber studies as described above. The F508del/MF-HBE cell cultures were either incubated with the corrector compounds at a range of concentrations in combination with 1 μM Ivacaftor or were incubated with the corrector compounds at a single fixed concentration of 10 μM in combination with 1 μM Ivacaftor for 18-24 hours at 37° C. and in the presence of 20% human serum. The concentration of corrector compounds with 1 μM Ivacaftor during the 18-24 hours incubations was kept constant throughout the Ussing chamber measurement of the CFTR-mediated ISC to ensure compounds were present throughout the entire experiment.
Ussing Chamber Assay of CFTR-mediated short-circuit currents
as §1, with “(HIBE)” for “(HBE)”, “(F508del/MIF-HIBE)” for “(F508del/MF-HBE)”
as §2, with “KH2PO4,” for “K2HPO4,”
Identification of Corrector Compounds

[1] = Table 11, at 10 μM, read-out: HBE Activity at 10 μM (%)
[2] = Table 10, read-out: HBE Max activity (%)
[3] = Table 11, read-out: HBE Max Activity (%)

SMILES: Cc1cccc(C)c1-c1cc2nc(n1)NS(=O)(=O)c1cccc(c1)C(=O)N(CC1CC(C)(C)CO1)[C@H](CC(C)(C)C)CO2 (stereo partly drawn) [Compound 21, (11R)-12-[(4,4-Dimethyloxolan-2-yl)methyl]-6-(2,6-dimethylphenyl)-11-(2,2-dimethylpropyl)-9-oxa-2λ^6-thia-3,5,12,19-tetraazatricyclo[12.3.1.14,8]nonadeca-1(17),4(19),5,7,14(18),15-hexaene-2,2,13-trione]
- activation at 10 µM [1]: > 60%

SMILES: Cc1cccc(C)c1-c1cc2nc(n1)NS(=O)(=O)c1cccc(c1)C(=O)N(CC1CC(C)(C)OC(C)(C)C1)[C@H](CC(C)(C)C)CO2 [Compound 30, (11R)-6-(2,6-Dimethylphenyl)-11-(2,2-dimethylpropyl)-12-[(2,2,6,6-tetramethyloxan-4-yl)methyl]-9-oxa-2λ^6-thia-3,5,12,19-tetraazatricyclo[12.3.1.14,8]nonadeca-1(18),4,6,8(19),14,16-hexaene-2,2,13-trione]
- activation at 10 µM [1]: > 60%

SMILES: Cc1cccc(C)c1-c1cc2nc(n1)NS(=O)(=O)c1cccc(c1)C(=O)N(Cc1ccc(C3CCCCC3)cn1)[C@H](CC(C)(C)C)CO2 [Compound 50, (11R)-12-[(5-Cyclohexyl-2-pyridyl)methyl]-6-(2,6-dimethylphenyl)-11-(2,2-dimethylpropyl)-2,2-dioxo-9-oxa-2λ^6-thia-3,5,12,19-tetrazatricyclo[12.3.1.14,8]nonadeca-1(18),4(19),5,7,14,16-hexaen-13-one]
- EC50 (Table 10): 1000 to 3000 nM
- Emax [2]: > 60%

SMILES: Cc1cccc(C)c1-c1cc2nc(n1)NS(=O)(=O)c1cccc(c1)C(=O)N(Cc1ccc(OCC(C)(C)O)cn1)[C@H](CC(C)(C)C)CO2 [Compound 51, (11R)-6-(2,6-Dimethylphenyl)-11-(2,2-dimethylpropyl)-12-[[5-(2-hydroxy-2-methyl-propoxy)-2-pyridyl]methyl]-2,2-dioxo-9-oxa-2λ^6-thia-3,5,12,19-tetrazatricyclo[12.3.1.14,8]nonadeca-1(18),4(19),5,7,14,16-hexaen-13-one]
- activation at 10 µM [1]: > 60%
- EC50 (Table 11): < 1000 nM
- Emax [3]: > 60%

SMILES: Cc1cccc(C)c1-c1cc2nc(n1)NS(=O)(=O)c1cccc(c1)C(=O)N(Cc1ccc(C3CCOCC3)cn1)[C@H](CC(C)(C)C)CO2 [Compound 52, (11R)-6-(2,6-Dimethylphenyl)-11-(2,2-dimethylpropyl)-2,2-dioxo-12-[(5-tetrahydropyran-4-yl-2-pyridyl)methyl]-9-oxa-2λ^6-thia-3,5,12,19-tetrazatricyclo[12.3.1.14,8]nonadeca-1(18),4(19),5,7,14,16-hexaen-13-one]
- EC50 (Table 11): < 1000 nM
- Emax [3]: > 60%

SMILES: Cc1cccc(C)c1-c1cc2nc(n1)NS(=O)(=O)c1cccc(c1)C(=O)N(Cc1ncccc1-c1cn[nH]c1)[C@H](CC(C)(C)C)CO2 [Compound 53, (11R)-6-(2,6-Dimethylphenyl)-11-(2,2-dimethylpropyl)-2,2-dioxo-12-[[3-(1H-pyrazol-4-yl)-2-pyridyl]methyl]-9-oxa-2λ^6-thia-3,5,12,19-tetrazatricyclo[12.3.1.14,8]nonadeca-1(18),4(19),5,7,14,16-hexaen-13-one]
- activation at 10 µM (Table 10, at 10 μM, read-out: HBE activity at 10 (μM) (%)): > 60%
- EC50 (Table 10): < 1000 nM
- Emax [2]: > 60%

SMILES: Cc1cccc(C)c1-c1cc2nc(n1)NS(=O)(=O)c1cccc(c1)C(=O)N(Cc1ncccc1O)[C@H](CC(C)(C)C)CO2 [Compound 54, (11R)-6-(2,6-Dimethylphenyl)-11-(2,2-dimethylpropyl)-12-[(3-hydroxy-2-pyridyl)methyl]-2,2-dioxo-9-oxa-2λ^6-thia-3,5,12,19-tetrazatricyclo[12.3.1.14,8]nonadeca-1(18),4(19),5,7,14,16-hexaen-13-one]
- EC50 (Table 10): < 1000 nM
- Emax [2]: > 60%

SMILES: Cc1cccc(C)c1-c1cc2nc(n1)NS(=O)(=O)c1cccc(c1)C(=O)N(CC1CC(N3CC(C)OC(C)C3)C1)[C@H](CC(C)(C)C)CO2 (stereo partly drawn) [Compound 65, (11R)-12-[[3-(2,6-Dimethylmorpholin-4-yl)cyclobutyl]methyl]-6-(2,6-dimethylphenyl)-11-(2,2-dimethylpropyl)-2,2-dioxo-9-oxa-2λ^6-thia-3,5,12,19-tetrazatricyclo[12.3.1.14,8]nonadeca-1(18),4(19),5,7,14,16-hexaen-13-one]
- activation at 10 µM (read-out: HBE Activity at 10 μM (%)): > 60%

Now from value to compound:

- EC50 (Table 10): < 1000 nM
- Emax [2]: > 60%
SMILES: Cc1cccc(C)c1-c1cc2nc(n1)NS(=O)(=O)c1cccc(c1)C(=O)N(Cc1ccc(N3CCOCC3)nc1)[C@H](CC(C)(C)C)CO2 [Compound 60, (11R)-6-(2,6-Dimethylphenyl)-11-(2,2-dimethylpropyl)-12-[(6-morpholino-3-pyridyl)methyl]-2,2-dioxo-9-oxa-2λ^6-thia-3,5,12,19-tetrazatricyclo[12.3.1.14,8]nonadeca-1(18),4(19),5,7,14,16-hexaen-13-one]

- EC50 (Table 11): < 1000 nM
- Emax [3]: > 60%
SMILES: Cc1cccc(C)c1-c1cc2nc(n1)NS(=O)(=O)c1cccc(c1)C(=O)N(Cc1cncc(N(C)CC(C)(C)C)n1)[C@H](CC(C)(C)C)CO2 [Compound 62, (11R)-6-(2,6-Dimethylphenyl)-11-(2,2-dimethylpropyl)-12-({6-[(2,2-dimethylpropyl)(methyl)amino]pyrazin-2-yl}methyl)-9-oxa-2λ^6-thia-3,5,12,19-tetraazatricyclo[12.3.1.14,8]nonadeca-1(18),4,6,8(19),14,16-hexaene-2,2,13-trione]

- EC50 (Table 10): < 1000 nM
- Emax [2]: > 60%
SMILES: Cc1cccc(C)c1-c1cc2nc(n1)NS(=O)(=O)c1cccc(c1)C(=O)N(CC1CCN(c3ncccn3)CC1)[C@H](CC(C)(C)C)CO2 [Compound 109, (11R)-6-(2,6-Dimethylphenyl)-11-(2,2-dimethylpropyl)-2,2-dioxo-12-[(1-pyrimidin-2-yl-4-piperidyl)methyl]-9-oxa-2λ^6-thia-3,5,12,19-tetrazatricyclo[12.3.1.14,8]nonadeca-1(18),4(19),5,7,14,16-hexaen-13-one]

- activation at 10 µM [1]: > 60%
- EC50 (Table 11): < 1000 nM
- Emax [3]: > 60%
SMILES: Cc1cccc(C)c1-c1cc2nc(n1)NS(=O)(=O)c1cccc(c1)C(=O)N(CCc1cccc(N3CCOCC3)n1)[C@H](CC(C)(C)C)CO2 [Compound 110, (11R)-6-(2,6-Dimethylphenyl)-11-(2,2-dimethylpropyl)-12-[2-(6-morpholino-2-pyridyl)ethyl]-2,2-dioxo-9-oxa-2λ^6-thia-3,5,12,19-tetrazatricyclo[12.3.1.14,8]nonadeca-1(18),4(19),5,7,14,16-hexaen-13-one]

- EC50 (Table 11): < 1000 nM
- Emax [3]: > 60%
SMILES: Cc1cccc(C)c1-c1cc2nc(n1)NS(=O)(=O)c1cccc(c1)C(=O)N(CCc1ccc(C3CCCCC3)cn1)[C@H](CC(C)(C)C)CO2 [Compound 112, (11R)-12-[2-(5-Cyclohexyl-2-pyridyl)ethyl]-6-(2,6-dimethylphenyl)-11-(2,2-dimethylpropyl)-2,2-dioxo-9-oxa-2λ^6-thia-3,5,12,19-tetrazatricyclo[12.3.1.14,8]nonadeca-1(18),4(19),5,7,14,16-hexaen-13-one]
